As usually defined, the IC50 is the point on the concentration scale where inhibition reaches its midpoint. Low readings indicate higher potency, high ones lower potency.

Structures can show the parent of a compound that is named as a salt. A value given as a limit tells only on which side of the number the result lay.

The source of these data is patent US20260258032A1, “TYROSINE KINASE 2 INHIBITORS AND USES THEREOF” (BIOGEN MA INC., priority 2022, published 2026).

One assay deals with T1, JH2 domain of human Tyk2 (Homo sapiens, UniProt P29597).
T1 construct: 10×His-tagged TYK2 JH2 domain (amino acid 575-876)
T1 sequence (P29597 575-876): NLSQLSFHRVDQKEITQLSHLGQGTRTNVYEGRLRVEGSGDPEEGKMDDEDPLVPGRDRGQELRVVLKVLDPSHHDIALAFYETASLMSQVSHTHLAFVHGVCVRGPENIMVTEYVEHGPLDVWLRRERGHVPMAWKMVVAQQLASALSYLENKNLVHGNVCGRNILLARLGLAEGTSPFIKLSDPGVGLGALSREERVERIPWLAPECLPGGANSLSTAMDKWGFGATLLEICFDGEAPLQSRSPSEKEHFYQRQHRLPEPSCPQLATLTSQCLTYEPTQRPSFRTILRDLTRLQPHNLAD
Kind of assay: JH2 biochemical assay (TR-FRET probe displacement). In kind it is binding. The method, boiled down: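 10×His-tagged human TYK2 JH2 (aa 575-876, 2 nM) incubated 60 min with 2 nM fluorescent probe, 0.1 nM Tb anti-His antibody and compound (10-point 3-fold series from […] top). TR-FRET 520/495 nm ratio, falling with probe displacement, normalized and fitted to a 4-parameter logistic for IC50.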

For assay [1], the system named is Tyk2 kinase activity on STAT4. Kind of assay: pSTAT4 cell assay (MSD, NK92 cells). Conditions: compounds 1 hr. Format: cell-based. In short, it runs like this:
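IC50 values derive from 4-parameter logistic fits of normalized percent activity against log compound concentration. Phospho-STAT was measured by MSD with anti-STAT4 antibodies after 15 min of 30 ng/mL IL2 in serum-starved NK92 cells pretreated 1 hr with compound.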

Where [2] appears, read: TR-FRET probe displacement, JH2 domain of human Tyk2.

For `CC(=O)Nc1cc2c(cn1)C1(CC1)CN2c1cc(NC2CCOC2)nc(C(C)(F)F)n1` (stereo not drawn) [Example 179, N-(1′-(2-(1,1-difluoroethyl)-6-((tetrahydrofuran-3-yl)amino)pyrimidin-4-yl)-1′,2′-dihydrospiro[cyclopropane-1,3′-pyrrolo[3,2-c]pyridin]-6′-yl)acetamide trifluoroacetate], the IC50 at JH2 domain of human Tyk2 (JH2 biochemical assay) was ≤ 10 nM; in assay [1] (stimulated 15 minutes), 10 to 100 nM.

`CCS(=O)(=O)C1CN(c2nc(C)cc(N3CC4(CC4)c4cnc(NC(C)=O)cc43)n2)C1` [Example 225, N-(1′-(2-(3-(ethylsulfonyl)azetidin-1-yl)-6-methylpyrimidin-4-yl)-1′,2′-dihydrospiro[cyclopropane-1,3′-pyrrolo[3,2-c]pyridin]-6′-yl)acetamide]: the IC50 at JH2 domain of human Tyk2 (JH2 biochemical assay) was 100 to 1000 nM; in assay [1] (stimulated 15 minutes), ≥ 1000 nM.

In the case of `COCC1CC(Oc2nc(C)cc(N3CC4(CC4)c4cnc(NC(C)=O)cc43)n2)C1` (stereo not drawn) [Example 376, N-(1′-(2-(3-(methoxymethyl)cyclobutoxy)-6-methylpyrimidin-4-yl)-1′,2′-dihydrospiro[cyclopropane-1,3′-pyrrolo[3,2-c]pyridin]-6′-yl)acetamide], the 50% inhibitory concentration (IC50) on JH2 domain of human Tyk2 (setting [2]) is 100 to 1000 nM; in assay [1] (then stimulated 15 minutes) it was ≥ 1000 nM.

`CCc1cc(N2CC3(CC3)c3cnc(NC(N)=O)cc32)nc(C(C)(F)F)n1` [Example 309, 1-(1′-(2-(1,1-difluoroethyl)-6-ethylpyrimidin-4-yl)-1′,2′-dihydrospiro[cyclopropane-1,3′-pyrrolo[3,2-c]pyridin]-6′-yl)urea]: the IC50 (on JH2 domain of human Tyk2 (JH2 biochemical assay); in assay [1] (stimulated 15 minutes)) was ≤ 10 nM throughout.

Regarding `COC1CC(COc2cc(C)cc(N3CC4(CC4)c4cnc(NC(C)=O)cc43)n2)C1` (stereo not drawn) [Example 350, N-(1′-(6-((3-methoxycyclobutyl)methoxy)-4-methylpyridin-2-yl)-1′,2′-dihydrospiro[cyclopropane-1,3′-pyrrolo[3,2-c]pyridin]-6′-yl)acetamide], the IC50 on JH2 domain of human Tyk2 (JH2 biochemical assay) was 100 to 1000 nM; in assay [1] (stimulated 15 minutes), ≥ 1000 nM.

In the case of `CO[C@H]1C[C@@H](Nc2cc(N3CC4(CC4)c4cnc(NC(C)=O)cc43)nc(C(C)(F)F)n2)C1` [Example 172, N-(1′-(2-(1,1-difluoroethyl)-6-(((1s,3s)-3-methoxycyclobutyl)amino)pyrimidin-4-yl)-1′,2′-dihydrospiro[cyclopropane-1,3′-pyrrolo[3,2-c]pyridin]-6′-yl)acetamide trifluoroacetate], the figures for the half-inhibitory concentration (IC50) (on JH2 domain of human Tyk2 (JH2 biochemical assay); in assay [1] (stimulated 15 minutes)) were ≤ 10 nM and 10 to 100 nM, respectively.

For `CC(=O)Nc1cc2c(cn1)C1(CC1)CN2c1cc(NC2COC2)nc(C(C)(F)F)n1` [Example 285, N-(1′-(2-(1,1-difluoroethyl)-6-(oxetan-3-ylamino)pyrimidin-4-yl)-1′,2′-dihydrospiro[cyclopropane-1,3′-pyrrolo[3,2-c]pyridin]-6′-yl)acetamide], the 50% inhibitory concentration (IC50) at JH2 domain of human Tyk2 (JH2 biochemical assay) is ≤ 10 nM; in assay [1] (stimulated 15 minutes) it was 10 to 100 nM.

As for `CC(=O)Nc1cc2c(cn1)C1(CC1)CN2c1cc(C2=COCC2)nc(C(C)(F)F)n1` [Example 296, N-(1′-(2-(1,1-difluoroethyl)-6-(4,5-dihydrofuran-3-yl)pyrimidin-4-yl)-1′,2′-dihydrospiro[cyclopropane-1,3′-pyrrolo[3,2-c]pyridin]-6′-yl)acetamide trifluoroacetate], the IC50 at JH2 domain of human Tyk2 (JH2 biochemical assay) was ≤ 10 nM; in assay [1] (stimulated 15 minutes), 100 to 1000 nM.

Consider `CC(=O)Nc1cc2c(cn1)C1(CC1)CN2c1cc(C)nc(C2CCCN(S(C)(=O)=O)C2)n1` (stereo not drawn) [Example 119, N-(1′-(6-methyl-2-(1-(methylsulfonyl)piperidin-3-yl)pyrimidin-4-yl)-1′,2′-dihydrospiro[cyclopropane-1,3′-pyrrolo[3,2-c]pyridin]-6′-yl)acetamide], for which the IC50 on JH2 domain of human Tyk2 (JH2 biochemical assay) fell in the range of 10 to 100 nM; in assay [1] (stimulated 15 minutes) it was 100 to 1000 nM.

On to `CC(=O)Nc1cc2c(cn1)C1(CC1)CN2c1cc(C)nc(C(F)F)n1` [Example 63, N-(1′-(2-(difluoromethyl)-6-methylpyrimidin-4-yl)-1′,2′-dihydrospiro[cyclopropane-1,3′-pyrrolo[3,2-c]pyridin]-6′-yl)acetamide], for which the IC50 was 10 to 100 nM at JH2 domain of human Tyk2 (JH2 biochemical assay) and ≥ 1000 nM in assay [1] (stimulated 15 minutes).

For `CCC1(C#N)CN(c2cc(C)cc(N3CC4(CC4)c4cnc(NC(C)=O)cc43)n2)C1` [Example 197, N-(1′-(6-(3-cyano-3-ethylazetidin-1-yl)-4-methylpyridin-2-yl)-1′,2′-dihydrospiro[cyclopropane-1,3′-pyrrolo[3,2-c]pyridin]-6′-yl)acetamide], the IC50 on JH2 domain of human Tyk2 (JH2 biochemical assay) was 10 to 100 nM; in assay [1] (stimulated 15 minutes) it was ≥ 1000 nM.

Turning to `CCC1(C#N)CN(c2nc(C)cc(N3CC4(CC4)c4cnc(NC(C)=O)cc43)n2)C1` [Example 219, N-(1′-(2-(3-cyano-3-ethylazetidin-1-yl)-6-methylpyrimidin-4-yl)-1′,2′-dihydrospiro[cyclopropane-1,3′-pyrrolo[3,2-c]pyridin]-6′-yl)acetamide], the 50% inhibitory concentration (IC50) at JH2 domain of human Tyk2 (JH2 biochemical assay) lay within 10 to 100 nM; in assay [1] (stimulated 15 minutes), 100 to 1000 nM.

As to `CC(=O)Nc1cc2c(cn1)C1(CC1)CN2c1cc(C)cc(N2CC[C@H](C#N)C2)n1` [Example 402, (S)-N-(1′-(6-(3-cyanopyrrolidin-1-yl)-4-methylpyridin-2-yl)-1′,2′-dihydrospiro[cyclopropane-1,3′-pyrrolo[3,2-c]pyridin]-6′-yl)acetamide], the values for the IC50 (on JH2 domain of human Tyk2 (setting [2]); in assay [1] (then stimulated 15 minutes)) were 10 to 100 nM and ≥ 1000 nM, respectively.

Take `CC(=O)Nc1cc2c(cn1)C1(CC1)CN2c1nc(C(C)(F)F)nc(C)c1F` [Example 127, N-(1′-(2-(1,1-difluoroethyl)-5-fluoro-6-methylpyrimidin-4-yl)-1′,2′-dihydrospiro[cyclopropane-1,3′-pyrrolo[3,2-c]pyridin]-6′-yl)acetamide]: the IC50 at JH2 domain of human Tyk2 (JH2 biochemical assay) is ≤ 10 nM; in assay [1] (stimulated 15 minutes) it was 100 to 1000 nM.

As for `CC(=O)Nc1cc2c(cn1)C1(CC1)CN2c1nc(C)cc(F)n1` [Example 331, N-(1′-(4-fluoro-6-methylpyrimidin-2-yl)-1′,2′-dihydrospiro[cyclopropane-1,3′-pyrrolo[3,2-c]pyridin]-6′-yl)acetamide trifluoroacetate], the IC50 at JH2 domain of human Tyk2 (JH2 biochemical assay) was 100 to 1000 nM; in assay [1] (stimulated 15 minutes) it was ≥ 1000 nM.

Take `CC(=O)Nc1cc2c(cn1)C1(CC1)CN2c1cc(-c2cnn(C3CCC3)c2)nc(C(C)(F)F)n1` [Example 382, N-(1′-(6-(1-cyclobutyl-1H-pyrazol-4-yl)-2-(1,1-difluoroethyl)pyrimidin-4-yl)-1′,2′-dihydrospiro[cyclopropane-1,3′-pyrrolo[3,2-c]pyridin]-6′-yl)acetamide trifluoroacetate]: the half-maximal inhibitory concentration (IC50) (on JH2 domain of human Tyk2 (setting [2]); in assay [1] (then stimulated 15 minutes)) was ≤ 10 nM in each case.

Turning to `COC1CC(c2nc(C)cc(N3CC4(CC4)c4cnc(NC(C)=O)cc43)n2)C1` (stereo not drawn) [Example 317, N-(1′-(2-(3-methoxycyclobutyl)-6-methylpyrimidin-4-yl)-1′,2′-dihydrospiro[cyclopropane-1,3′-pyrrolo[3,2-c]pyridin]-6′-yl)acetamide], the half-inhibitory concentration (IC50) at JH2 domain of human Tyk2 (JH2 biochemical assay) was ≤ 10 nM; in assay [1] (stimulated 15 minutes), 100 to 1000 nM.

`CC(=O)Nc1cc2c(cn1)C1(CC1)CN2c1cc(C)nc(C2CCS(=O)(=O)C2)n1` (stereo not drawn) [Example 98, N-(1′-(2-(1,1-dioxidotetrahydrothiophen-3-yl)-6-methylpyrimidin-4-yl)-1′,2′-dihydrospiro[cyclopropane-1,3′-pyrrolo[3,2-c]pyridin]-6′-yl)acetamide]: the IC50 at JH2 domain of human Tyk2 (JH2 biochemical assay) is 10 to 100 nM; in assay [1] (stimulated 15 minutes) it was ≥ 1000 nM.
